Key:
A2780 [1] = assay: In vitro cytotoxicity of compound was determined against A2780 cell lines (cisplatin resistant) at 37 degree C for 96 hr; assay type: functional, Homo sapiens
CH1 [2] = assay: In vitro cytotoxicity of compound was determined against CH1 cell lines at 37 degree C for 96 hr; assay type: functional, Homo sapiens
CH1 [3] = assay: In vitro cytotoxicity of compound was determined against CH1 (cisplatin resistant) cell lines at 37 degree C for 96 hr; assay type: functional, Homo sapiens
SK-OV-3 = assay: In vitro cytotoxicity of compound was determined against SKOV-3 cell lines at 37 degree C for 96 hr; assay type: functional, Homo sapiens
Nucleic Acid [4] = assay: Change in thermal denaturation temperature determined from calf thymus DNA after incubation at 37 degree celsius for 0 hours; assay type: functional; conditions: Bos taurus
Nucleic Acid [5] = assay: Change in thermal denaturation temperature determined from calf thymus DNA after incubation at 37 degree celsius for 18 hours; assay type: functional; conditions: Bos taurus
Nucleic Acid [6] = assay: Change in thermal denaturation temperature determined from calf thymus DNA after incubation at 37 degree celsius for 4 hours; assay type: functional; conditions: Bos taurus
[7] = Resistance factor of compound was determined from cisplatin resistant A2780 cell lines to that of A2780 cell lines; assay type: functional
[8] = Resistance factor of compound was determined from cisplatin resistant CH1 cell lines to that of CH1 cell lines; assay type: functional
A2780 [9] = assay: In vitro cytotoxicity of compound was determined against A2780 cell lines at 37 degree C for 96 hr; assay type: functional, Homo sapiens

## C=C1C[C@H]2C=Nc3cc(OCc4ccccc4)c(OC)cc3C(=O)N2C1
A2780 [1]
  Cytotoxicity: 0.2 µM
CH1 [2]
  Cytotoxicity: 0.017 µM
CH1 [3]
  Cytotoxicity: 0.082 µM
SK-OV-3
  Cytotoxicity: 0.35 µM
Nucleic Acid [4]
  ΔTm: 1.01 °C
Nucleic Acid [5]
  ΔTm: 1.33 °C
Nucleic Acid [6]
  ΔTm: 1.22 °C
[7]
  Resistance factor: 6.9
[8]
  Resistance factor: 4.8
A2780 [9]
  Cytotoxicity: 0.029 µM

## COc1cc2c(cc1OCc1ccccc1)N=C[C@@H]1CCCN1C2=O
A2780 [1]
  Cytotoxicity: 0.48 µM
CH1 [2]
  Cytotoxicity: 0.145 µM
CH1 [3]
  Cytotoxicity: 0.145 µM
SK-OV-3
  Cytotoxicity: 0.46 µM
Nucleic Acid [4]
  ΔTm: 0.2 °C
Nucleic Acid [5]
  ΔTm: 0.4 °C
Nucleic Acid [6]
  ΔTm: 0.4 °C
[7]
  Resistance factor: 2.8
[8]
  Resistance factor: 1
A2780 [9]
  Cytotoxicity: 0.17 µM

## C/C=C1/C[C@H]2C=Nc3cc(OCc4ccccc4)c(OC)cc3C(=O)N2C1
A2780 [1]
  Cytotoxicity: 0.066 µM
CH1 [2]
  Cytotoxicity: 0.031 µM
CH1 [3]
  Cytotoxicity: 0.031 µM
SK-OV-3
  Cytotoxicity: 0.081 µM
Nucleic Acid [4]
  ΔTm: 0.92 °C
Nucleic Acid [5]
  ΔTm: 2.34 °C
Nucleic Acid [6]
  ΔTm: 1.65 °C
[7]
  Resistance factor: 1.9
[8]
  Resistance factor: 1
A2780 [9]
  Cytotoxicity: 0.034 µM

## C=C1C[C@H]2C=Nc3cc(OC)c(OC)cc3C(=O)N2C1
A2780 [1]
  Cytotoxicity: 0.36 µM
CH1 [2]
  Cytotoxicity: 0.066 µM
CH1 [3]
  Cytotoxicity: 0.084 µM
SK-OV-3
  Cytotoxicity: 0.39 µM
Nucleic Acid [4]
  ΔTm: 1.46 °C
Nucleic Acid [5]
  ΔTm: 2.38 °C
Nucleic Acid [6]
  ΔTm: 1.95 °C
[7]
  Resistance factor: 2.4
[8]
  Resistance factor: 1.3
A2780 [9]
  Cytotoxicity: 0.15 µM

## C/C=C1/C[C@H]2C=Nc3cc(O)c(OC)cc3C(=O)N2C1
CH1 [2]
  Cytotoxicity: 0.00013 µM

## C/C=C1/C[C@H]2C=Nc3cc(OC)c(OC)cc3C(=O)N2C1
A2780 [1]
  Cytotoxicity: 0.14 µM
CH1 [2]
  Cytotoxicity: 0.035 µM
CH1 [3]
  Cytotoxicity: 0.056 µM
SK-OV-3
  Cytotoxicity: 0.135 µM
Nucleic Acid [4]
  ΔTm: 0.84 °C
Nucleic Acid [5]
  ΔTm: 1.86 °C
Nucleic Acid [6]
  ΔTm: 1.47 °C
[7]
  Resistance factor: 1.9
[8]
  Resistance factor: 1.6
A2780 [9]
  Cytotoxicity: 0.071 µM

## COc1cc2c(cc1OC)C(=O)N1CCC[C@H]1C=N2
A2780 [1]
  Cytotoxicity: 0.155 µM
CH1 [2]
  Cytotoxicity: 0.082 µM
CH1 [3]
  Cytotoxicity: 0.11 µM
SK-OV-3
  Cytotoxicity: 1.7 µM
Nucleic Acid [4]
  ΔTm: 0.24 °C
Nucleic Acid [5]
  ΔTm: 0.57 °C
Nucleic Acid [6]
  ΔTm: 0.43 °C
[7]
  Resistance factor: 2.4
[8]
  Resistance factor: 1.3
A2780 [9]
  Cytotoxicity: 0.064 µM
